# Results: patent publication US10768161B2, “Method for ecological risk assessment of heavy metal in river basin sediment based on toxicity effect” (CHINESE RESEARCH ACADEMY OF ENV[…], priority 2015, dated 2020)
# Columns and labels:
# aquatic organisms [1] = assay: Integration and normalization of release coefficient and HC5 to toxicity coefficient S^i; conditions: for Toxicity coefficient: Table 4; for Square root (toxicity coefficient S^i): final step of integration and normalization, Table 3
# Text: (7) repeating steps (4) to (6) n times to obtain the release coefficient cs^i and toxic concentration HC5^i of each heavy metal determined in step (2), and integrating and normalizing the release coefficient cs^i and toxic concentration HC5^i of each heavy metal to obtain the toxicity coefficient S^i of the i^th heavy metal;
# Preferably, the integrating and normalizing regulation described in step (7) comprises the following calculation steps:
# a. calculating the reciprocal of the concentration HC5^i of the i^th heavy metal, and keeping three significant figures for each value obtained;
# b. dividing each reciprocal number obtained in step a by the smallest one of them, and keeping three significant figures for each value obtained;
# c. multiplying each value obtained in step b by the release coefficient cs^i of the corresponding i^th heavy metal;
# d. dividing each value obtained in step c by the smallest one of them, and keeping three significant figures for each value obtained; […]
# [2] = cited from earlier work; for Release coefficient: Table 3
# [3] = Ecological risk assessment of heavy metals in a lake basin sediment; conditions: for Toxicity response coefficient: Tr^i=S^i*(5/BPI)^x, lake BPI=6.7; for Pollution risk index: ecological risk index Er^i=Tr^i*cf^i for the lake
# Text: (8) calculating the toxicity response coefficient Tr^i of the i^th heavy metal according to the formula Tr^i=S^i*(5/BPI)^X one by one, where BPI is the biological yield index of the water body evaluated and the value of x is 1, ½ or 0;
# (9) calculating the ecological risk index Er^i of the i^th heavy metal according to the formula Er^i=Tr^i*cf^i one by one, and the resulting Er^i is used to evaluate the ecological risk of a single metal to the assessed river basin: when Er^i<30, the ecological hazard of the i^th heavy metal to the assessed river basin is slight, when 30≤Er^i<60, the ecological hazard of the i^th heavy metal to the assessed river basin is medium, when 60≤Er^i<120, the ecological hazard of the i^th heavy metal to the assessed river basin is strong, when 120≤Er^i<240, the ecological hazard of the i^th heavy metal to the assessed river basin is very strong, when Er^i>240, the ecological hazard of the i^th heavy metal to the assessed river basin is extremely strong.
# Preferably, the ecological assessment method described above also includes the step (10), that is using the formula RI=Σi=1^N Er^i to calculate the total ecological risk comprehensive index RI caused by multiple heavy metal pollutants in the water body and then using RI to evaluate the ecological risk of the assessed river basin: when RI<150, there is a slight ecological hazard in the river basin, when 150≤RI<300, there is a medium ecological hazard in the river basin, when 300≤RI<600, there is a very strong ecological hazard in the river basin, when RI≥600, there is an extremely strong ecological hazard in the river basin.
# Preferably, the BPI described in step (8) is the bioproduction index, which is determined by the burning amount and nitrogen content of the sediment samples. BPI indicates the sensitivity of water to heavy metal pollutions, namely the effects of Eh and pH of pore water in sediments, and pH, salinity, and alkalinity of overlying water on the various heavy metals in the water.
# Preferably, the value of x described in step (8) is determined by the type of heavy metals that is measured. The toxicity response coefficient of Hg decreases with the increase of BPI, and the relationship between them is linear. Therefore, when the measured metal is Hg, the value of x is 1. The toxicity response coefficient of As is independent of BPI. Therefore, when the measured metal is As, the value of x is 0. The toxicity response coefficient of other heavy metals also decreases with the increase of BPI, but it is not linear. Therefore, when the measured metal is not Hg or As, the value of x is ½.
# aquatic organisms [4] = assay: Species Sensitivity Distributions (SSD) curve fitting, toxic concentration HC5; parameters: Toxic concentration: unit not given here; conditions: for Toxic concentration: HC5^i, protects 95% of aquatic organisms, Table 3
# Text: (5) collecting the chronic toxicity data of the i^th heavy metal on aquatic species selected in step (1), performing curve fitting on the collected data, and selecting the curve regression equation with the highest goodness of fit, so as to obtain the best equation for the sensitivity of the i^th heavy metal;
# (6) drawing a fitting curve (Species Sensitivity Distributions, SSD) according to the best fitting equation obtained in step (5), and setting the y value of this equation, that is, the cumulative probability to 0.05, and then calculating the corresponding x value, which is the toxic concentration HC5^i of the i^th heavy metal that protects 95% of aquatic organisms;
# Preferably, plotting the collected concentration values of toxicity data for different species of organisms against the quantiles arranged in concentration, and selecting the curve equation to fit based on the resulting data point distribution shape. The fitting should adopt several different functions and select the optimal regression curve, so as to avoid the systematic errors introduced by improper selection of functions. When the distribution of the toxicity data points is a common S-type, the fitting curves are preferred to use the log-Normal distribution function, the log-logistic distribution function, the log-triangular distribution function, or a combination thereof. When the distribution of the toxicity data points is different from the common S-type distribution, other curves or non-parametric methods can be used to fit the data points, for example, using the Burr type III distribution function as the regression curve equation of the toxicity data of heavy metals.
# Preferably, the goodness of fit described in step (5) is determined by the toxicity data points and the judgment coefficient R^2 of the resulting curve regression equation: when the judgment coefficient R^2 of the curve regression equation gets closer to 1, the goodness of the curve regression equation for the data is higher.
# Preferably, the concentration HC5^i of the i^th heavy metal that protects 95% of aquatic organisms described in step (6) is the toxicity data corresponding to the cumulative probability of 5% aquatic organisms on the fitted curve.
# Coilia nasus taihuensis = conditions: chronic toxicity, Fishes; cited from earlier work
# Duckweed = conditions: chronic toxicity, Hydrophyte; cited from earlier work
# Scenedesmus = conditions: chronic toxicity, Phytoplankton; cited from earlier work
# Azolla pinnata = conditions: chronic toxicity, Hydrophyte; cited from earlier work
# Arenaceous sanding = conditions: chronic toxicity, Zooplankton; cited from earlier work
# Carp = conditions: chronic toxicity, Fishes; cited from earlier work
# Wild lotus = conditions: chronic toxicity, Hydrophyte; cited from earlier work
# Cryptophyta = conditions: chronic toxicity, Phytoplankton; cited from earlier work
# Pyrrophyta = conditions: chronic toxicity, Phytoplankton; cited from earlier work
# Chironomus = conditions: chronic toxicity, Zoobenthos; cited from earlier work
# Protosalanx hyalocranius = conditions: chronic toxicity, Fishes; cited from earlier work
# Brachionus calyciflorus = conditions: chronic toxicity, Zooplankton; cited from earlier work
# Bosmina = conditions: chronic toxicity, Zooplankton; cited from earlier work
# Bellamya aeruginosa = conditions: chronic toxicity; Zoobenthos, Bellamya aeruginose; cited from earlier work
# Corbicula fluminea = conditions: chronic toxicity, Zoobenthos; cited from earlier work
SMILES,Toxicity coefficient (aquatic organisms [1]),Square root (toxicity coefficient S^i) (aquatic organisms [1]),Release coefficient [2],Toxicity response coefficient [3],Pollution risk index [3],Toxic concentration (aquatic organisms [4]),also measured
[Cu] [Cu],17.00,17,200,14.69,26.73,0.89,
[As] [As],1.50,1.5,27,1.50,1.05,14.9,
[Pb] [Pb],,,71,,,,
[Cd] [Cd],28.00,28,200,24.19,18.38,0.3,
[Ni] [Ni],5.50,5.5,147,4.75,3.85,6.03,
[Zn] [Zn],2.50,2.5,57,2.16,2.66,10.83,
[Cr] [Cr],1.00,1,2,0.86,0.68,2.42,Toxicity data (NOEC) (Coilia nasus taihuensis): 6941 µg/kg; Toxicity data (NOEC) (Duckweed): 1000 µg/kg; Toxicity data (NOEC) (Scenedesmus): 8 µg/kg; Toxicity data (NOEC) (Azolla pinnata): 625 µg/kg; Toxicity data (NOEC) (Arenaceous sanding): 1500 µg/kg; Toxicity data (NOEC) (Carp): 23516 µg/kg; Toxicity data (NOEC) (Wild lotus): 123 µg/kg; release coefficient cs^1 ([2]; from the literature): 2×10^−3; Toxicity data (NOEC) (Cryptophyta): 317 µg/kg; Toxicity data (NOEC) (Pyrrophyta): 671 µg/kg; Toxicity data (NOEC) (Chironomus): 20 µg/kg; Toxicity data (NOEC) (Protosalanx hyalocranius): 4405 µg/kg; Toxicity data (NOEC) (Brachionus calyciflorus): 1789 µg/kg; Toxicity data (NOEC) (Bosmina): 46.5 µg/kg; Toxicity data (NOEC) (Bellamya aeruginosa): 250 µg/kg; toxic concentration HC5^i that protects 95% of aquatic organisms (aquatic organisms [4]; cumulative probability 0.05 on log-logistic SSD fit of chronic toxicity data): 2.42 µg/L; Toxicity data (NOEC) (Corbicula fluminea): 1.13 µg/kg
[Hg] [Hg],27.00,27,320,20.15,54.40,0.53,"ecological hazard to the lake ([3]; class by Er^i of single metal): medium (when 30≤Er^i<60, the ecological hazard of the i^th heavy metal to the assessed river basin is medium)"
